Drawing on ChEMBL document CHEMBL5212743, “Selectivity Literature for EUbOPEN Chemogenomics Library wave 3” (2023), this text covers dTm and % activity remaining for two compounds.

A value given as a limit tells only on which side of the number the result lay.

The target in experiment [1] is Bromodomain-containing protein 1 (Homo sapiens) (UniProt O95696). The experiment can be described thus: Selectivity interaction (Bromodomain panel (DSF assay)) EUB0000224e BRD1. A general note: Differential scanning fluorimetry follows unfolding on heating by fluorescence.
Experiment [2] concerns the target Chromatin remodeling regulator CECR2 (Homo sapiens, UniProt Q9BXF3). The experiment can be described thus: Selectivity interaction (Bromodomain panel (DSF assay)) EUB0000224e CECR2.
The target in experiment [3] is Protein arginine N-methyltransferase 9 (Homo sapiens) (UniProt Q6P2P2). In words: Selectivity interaction (Protein methyltransferase panel (activity assay)) EUB0000211b PRMT9.
Experiment [4] concerns the target Histone-lysine N-methyltransferase EHMT2 (Homo sapiens) (UniProt Q96KQ7). In words: Selectivity interaction (Protein methyltransferase panel (activity assay)) EUB0000211b EHMT2.
Experiment [5] deals with Protein arginine N-methyltransferase 3 (Homo sapiens, UniProt O60678). In words: Selectivity interaction (Protein methyltransferase panel (activity assay)) EUB0000211b PRMT3.
Experiment [6] has as its target Histone-lysine N-methyltransferase NSD3 (Homo sapiens) (UniProt Q9BZ95). In words: Selectivity interaction (Protein methyltransferase panel (activity assay)) EUB0000211b NSD3.
The target of experiment [7] is Protein arginine N-methyltransferase 8 (Homo sapiens, UniProt Q9NR22). In words: Selectivity interaction (Protein methyltransferase panel (activity assay)) EUB0000211b PRMT8.
In experiment [8] the target is N-lysine methyltransferase KMT5A (Homo sapiens) (UniProt Q9NQR1). The experiment can be described thus: Selectivity interaction (Protein methyltransferase panel (activity assay)) EUB0000211b SETD8.
Experiment [9] deals with Histone-lysine N-methyltransferase KMT5B (Homo sapiens, UniProt Q4FZB7). The experiment can be described thus: Selectivity interaction (Protein methyltransferase panel (activity assay)) EUB0000211b SUV420H1.
Experiment [10] concerns the target Histone-lysine N-methyltransferase KMT5C (Homo sapiens, UniProt Q86Y97). The experiment can be described thus: Selectivity interaction (Protein methyltransferase panel (activity assay)) EUB0000211b SUV420H2.
Experiment [11] has as its target DNA (cytosine-5)-methyltransferase 1 (Homo sapiens, UniProt P26358). The experiment can be described thus: Selectivity interaction (Protein methyltransferase panel (activity assay)) EUB0000211b DNMT1.
Experiment [12] addresses Histone-lysine N-methyltransferase SETD7 (Homo sapiens) (UniProt Q8WTS6). The experiment can be described thus: Selectivity interaction (Protein methyltransferase panel (activity assay)) EUB0000211b SETD7.
Experiment [13] deals with Histone-lysine N-methyltransferase, H3 lysine-79 specific (Homo sapiens, UniProt Q8TEK3). The experiment can be described thus: Selectivity interaction (Protein methyltransferase panel (activity assay)) EUB0000211b DOT1L.
Experiment [14] has as its target Histone-lysine N-methyltransferase SETDB1 (Homo sapiens, UniProt Q15047). The experiment can be described thus: Selectivity interaction (Protein methyltransferase panel (activity assay)) EUB0000211b SETDB1.
For experiment [15], the target named is Histone-lysine N-methyltransferase EZH1 (Homo sapiens) (UniProt Q92800). In words: Selectivity interaction (Protein methyltransferase panel (activity assay)) EUB0000211b EZH1.
Experiment [16] concerns the target Protein arginine N-methyltransferase 1 (Homo sapiens, UniProt Q99873). The experiment can be described thus: Selectivity interaction (Protein methyltransferase panel (activity assay)) EUB0000211b PRMT1.
Experiment [17] has as its target Tudor domain-containing protein 3 (Homo sapiens) (UniProt Q9H7E2). In words: Selectivity interaction (Methyl-Lysine/Arginine panel (DSF assay)) EUB0000211b TDRD3. The settings on record: OICR-# does not inhibit the C/EBPa p30-Wdr5 interaction (Western Blot), PMID: #;, Selectivity Remarks In vitro, Selectivity Source Knowledge https://www.thesgc.org/chemical-probes/OICR-9429, S.

The target of experiment [18] is Protein arginine N-methyltransferase 5 (Homo sapiens, UniProt O14744). The experiment can be described thus: Selectivity interaction (Protein methyltransferase panel (activity assay)) EUB0000211b PRMT5.
In experiment [19] the target is Histone-lysine N-methyltransferase EHMT1 (Homo sapiens) (UniProt Q9H9B1). The experiment can be described thus: Selectivity interaction (Protein methyltransferase panel (activity assay)) EUB0000211b EHMT1.
Experiment [20] has as its target Histone-lysine N-methyltransferase, H3 lysine-36 specific (Homo sapiens) (UniProt Q96L73). The experiment can be described thus: Selectivity interaction (Protein methyltransferase panel (activity assay)) EUB0000211b NSD1.
For experiment [21], the target named is Histone-lysine N-methyltransferase EZH2 (Homo sapiens, UniProt Q15910). In words: Selectivity interaction (Protein methyltransferase panel (activity assay)) EUB0000211b EZH2.
Experiment [22] has as its target Histone-lysine N-methyltransferase NSD2 (Homo sapiens) (UniProt O96028). In words: Selectivity interaction (Protein methyltransferase panel (activity assay)) EUB0000211b NSD2.
Experiment [23] has as its target Histone-lysine N-methyltransferase SUV39H2 (Homo sapiens, UniProt Q9H5I1). In words: Selectivity interaction (Protein methyltransferase panel (activity assay)) EUB0000211b SUV39H2.
Experiment [24] deals with N-lysine methyltransferase SMYD2 (Homo sapiens, UniProt Q9NRG4). The experiment can be described thus: Selectivity interaction (Protein methyltransferase panel (activity assay)) EUB0000211b SMYD2.
Experiment [25] has as its target Protein arginine N-methyltransferase 6 (Homo sapiens, UniProt Q96LA8). The experiment can be described thus: Selectivity interaction (Protein methyltransferase panel (activity assay)) EUB0000211b PRMT6.

Chain of Protein arginine N-methyltransferase 3 (O60678 2-531 limits assumed): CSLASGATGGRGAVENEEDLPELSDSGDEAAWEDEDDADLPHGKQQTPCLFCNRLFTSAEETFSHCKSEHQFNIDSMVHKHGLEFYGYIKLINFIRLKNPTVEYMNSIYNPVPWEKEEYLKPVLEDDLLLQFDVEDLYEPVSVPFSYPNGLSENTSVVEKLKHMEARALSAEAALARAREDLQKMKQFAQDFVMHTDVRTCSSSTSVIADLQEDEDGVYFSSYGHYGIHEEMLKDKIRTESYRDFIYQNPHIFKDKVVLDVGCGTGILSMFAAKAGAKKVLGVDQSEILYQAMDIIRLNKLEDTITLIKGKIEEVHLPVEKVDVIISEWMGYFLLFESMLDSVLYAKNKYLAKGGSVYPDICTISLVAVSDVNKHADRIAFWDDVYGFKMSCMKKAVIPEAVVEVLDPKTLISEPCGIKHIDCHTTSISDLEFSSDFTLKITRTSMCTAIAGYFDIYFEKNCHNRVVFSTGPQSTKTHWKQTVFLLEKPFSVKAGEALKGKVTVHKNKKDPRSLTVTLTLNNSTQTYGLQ
Chain of Histone-lysine N-methyltransferase EHMT1 (Homo sapiens) (Q9H9B1 whole entry): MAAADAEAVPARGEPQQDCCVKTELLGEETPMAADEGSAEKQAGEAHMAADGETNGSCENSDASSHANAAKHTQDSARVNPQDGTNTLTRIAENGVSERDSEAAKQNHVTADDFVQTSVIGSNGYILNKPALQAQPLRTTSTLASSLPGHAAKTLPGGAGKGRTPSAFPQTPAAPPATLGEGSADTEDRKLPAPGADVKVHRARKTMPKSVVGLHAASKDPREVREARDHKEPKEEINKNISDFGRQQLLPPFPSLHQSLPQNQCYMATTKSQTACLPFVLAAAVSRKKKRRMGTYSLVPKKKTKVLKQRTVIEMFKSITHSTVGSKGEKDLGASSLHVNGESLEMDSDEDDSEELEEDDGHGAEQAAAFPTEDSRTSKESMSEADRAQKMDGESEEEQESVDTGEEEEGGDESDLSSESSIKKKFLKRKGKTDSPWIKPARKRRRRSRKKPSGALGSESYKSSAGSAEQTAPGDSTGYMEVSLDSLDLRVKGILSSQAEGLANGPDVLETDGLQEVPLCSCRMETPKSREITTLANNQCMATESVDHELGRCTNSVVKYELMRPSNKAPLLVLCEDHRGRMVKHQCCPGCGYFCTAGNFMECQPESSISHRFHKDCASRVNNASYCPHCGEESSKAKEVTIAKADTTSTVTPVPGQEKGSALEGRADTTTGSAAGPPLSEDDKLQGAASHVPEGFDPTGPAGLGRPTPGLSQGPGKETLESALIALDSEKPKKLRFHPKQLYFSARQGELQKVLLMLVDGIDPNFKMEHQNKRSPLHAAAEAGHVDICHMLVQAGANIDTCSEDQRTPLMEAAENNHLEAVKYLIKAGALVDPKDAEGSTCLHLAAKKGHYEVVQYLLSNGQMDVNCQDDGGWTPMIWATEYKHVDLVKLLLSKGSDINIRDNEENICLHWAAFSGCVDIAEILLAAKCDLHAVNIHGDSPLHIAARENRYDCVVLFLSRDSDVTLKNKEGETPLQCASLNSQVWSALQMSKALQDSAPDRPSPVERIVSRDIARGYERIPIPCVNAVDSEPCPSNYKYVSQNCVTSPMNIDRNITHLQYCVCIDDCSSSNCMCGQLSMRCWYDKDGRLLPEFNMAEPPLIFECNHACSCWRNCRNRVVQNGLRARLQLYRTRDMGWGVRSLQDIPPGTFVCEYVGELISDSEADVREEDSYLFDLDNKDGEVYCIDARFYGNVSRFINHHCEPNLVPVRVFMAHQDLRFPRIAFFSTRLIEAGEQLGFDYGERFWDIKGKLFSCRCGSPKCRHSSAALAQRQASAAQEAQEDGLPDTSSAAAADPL
Chain of Histone-lysine N-methyltransferase, H3 lysine-36 specific (Homo sapiens) (Q96L73 whole entry): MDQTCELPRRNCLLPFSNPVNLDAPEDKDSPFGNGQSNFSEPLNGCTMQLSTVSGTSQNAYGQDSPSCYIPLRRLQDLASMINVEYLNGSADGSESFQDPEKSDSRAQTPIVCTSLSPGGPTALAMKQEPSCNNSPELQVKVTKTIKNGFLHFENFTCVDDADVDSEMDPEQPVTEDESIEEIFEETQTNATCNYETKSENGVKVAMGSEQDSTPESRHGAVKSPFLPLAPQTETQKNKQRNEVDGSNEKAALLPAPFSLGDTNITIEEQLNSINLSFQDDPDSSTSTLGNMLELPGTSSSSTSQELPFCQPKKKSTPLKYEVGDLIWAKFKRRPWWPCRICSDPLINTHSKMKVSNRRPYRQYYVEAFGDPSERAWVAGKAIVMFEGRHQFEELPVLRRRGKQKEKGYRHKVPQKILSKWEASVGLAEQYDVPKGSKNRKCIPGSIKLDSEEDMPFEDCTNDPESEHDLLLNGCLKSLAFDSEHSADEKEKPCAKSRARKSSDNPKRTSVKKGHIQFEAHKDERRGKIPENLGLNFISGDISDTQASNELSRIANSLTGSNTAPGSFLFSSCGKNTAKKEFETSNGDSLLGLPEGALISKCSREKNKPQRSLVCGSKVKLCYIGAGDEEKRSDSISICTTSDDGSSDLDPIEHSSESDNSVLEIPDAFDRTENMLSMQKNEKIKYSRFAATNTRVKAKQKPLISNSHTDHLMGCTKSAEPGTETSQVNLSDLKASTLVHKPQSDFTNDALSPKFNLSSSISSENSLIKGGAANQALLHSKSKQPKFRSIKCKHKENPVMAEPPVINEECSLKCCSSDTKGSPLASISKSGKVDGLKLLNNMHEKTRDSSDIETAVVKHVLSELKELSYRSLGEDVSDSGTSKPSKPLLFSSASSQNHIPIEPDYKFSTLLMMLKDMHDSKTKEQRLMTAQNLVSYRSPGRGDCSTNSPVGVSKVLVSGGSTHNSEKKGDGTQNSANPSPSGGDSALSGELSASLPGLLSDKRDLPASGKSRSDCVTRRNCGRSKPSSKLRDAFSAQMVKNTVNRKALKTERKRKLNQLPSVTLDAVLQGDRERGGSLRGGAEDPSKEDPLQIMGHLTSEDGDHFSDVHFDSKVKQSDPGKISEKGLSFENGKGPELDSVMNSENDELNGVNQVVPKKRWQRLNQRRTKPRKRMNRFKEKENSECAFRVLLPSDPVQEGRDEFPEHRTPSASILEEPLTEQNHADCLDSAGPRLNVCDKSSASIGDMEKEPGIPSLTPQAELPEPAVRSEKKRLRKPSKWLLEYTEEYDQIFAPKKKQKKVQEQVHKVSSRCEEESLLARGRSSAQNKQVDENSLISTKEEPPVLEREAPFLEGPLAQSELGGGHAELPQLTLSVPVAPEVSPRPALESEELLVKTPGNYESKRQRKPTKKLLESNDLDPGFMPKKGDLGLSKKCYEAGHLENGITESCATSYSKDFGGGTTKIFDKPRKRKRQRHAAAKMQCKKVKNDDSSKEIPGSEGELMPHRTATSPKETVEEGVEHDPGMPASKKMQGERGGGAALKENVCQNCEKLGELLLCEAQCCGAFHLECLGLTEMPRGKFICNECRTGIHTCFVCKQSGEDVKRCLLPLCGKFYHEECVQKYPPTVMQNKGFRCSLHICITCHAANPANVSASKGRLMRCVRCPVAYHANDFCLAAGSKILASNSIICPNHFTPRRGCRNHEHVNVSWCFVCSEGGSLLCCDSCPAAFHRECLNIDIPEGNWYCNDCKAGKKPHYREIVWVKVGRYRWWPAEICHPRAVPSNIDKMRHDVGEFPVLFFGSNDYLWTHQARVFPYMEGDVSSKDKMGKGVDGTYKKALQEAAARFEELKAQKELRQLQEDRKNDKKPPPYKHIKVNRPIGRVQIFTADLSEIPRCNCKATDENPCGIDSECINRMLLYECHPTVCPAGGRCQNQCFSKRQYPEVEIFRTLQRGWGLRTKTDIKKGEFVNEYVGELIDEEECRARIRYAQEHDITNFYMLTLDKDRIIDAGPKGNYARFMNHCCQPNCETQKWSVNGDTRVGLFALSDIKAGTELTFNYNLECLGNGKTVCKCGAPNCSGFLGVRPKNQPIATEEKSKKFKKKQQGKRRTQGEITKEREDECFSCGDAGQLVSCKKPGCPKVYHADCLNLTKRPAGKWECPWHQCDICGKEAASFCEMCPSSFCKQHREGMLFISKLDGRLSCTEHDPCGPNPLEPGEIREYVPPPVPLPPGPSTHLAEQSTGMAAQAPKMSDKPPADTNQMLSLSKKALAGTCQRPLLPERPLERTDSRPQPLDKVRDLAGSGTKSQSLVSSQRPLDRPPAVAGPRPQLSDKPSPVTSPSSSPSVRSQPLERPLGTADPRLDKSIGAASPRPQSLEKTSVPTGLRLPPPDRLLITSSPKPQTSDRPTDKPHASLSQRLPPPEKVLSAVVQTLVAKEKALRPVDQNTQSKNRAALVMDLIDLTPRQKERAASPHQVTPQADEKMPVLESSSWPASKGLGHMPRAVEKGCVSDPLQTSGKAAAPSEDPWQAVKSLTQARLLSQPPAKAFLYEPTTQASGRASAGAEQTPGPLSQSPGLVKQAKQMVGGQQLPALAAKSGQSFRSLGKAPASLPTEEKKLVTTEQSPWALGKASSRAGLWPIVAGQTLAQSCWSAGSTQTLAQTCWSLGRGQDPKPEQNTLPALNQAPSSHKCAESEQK
Chain of Protein arginine N-methyltransferase 1 (Q99873 whole entry, looked up, the tested form may be a part): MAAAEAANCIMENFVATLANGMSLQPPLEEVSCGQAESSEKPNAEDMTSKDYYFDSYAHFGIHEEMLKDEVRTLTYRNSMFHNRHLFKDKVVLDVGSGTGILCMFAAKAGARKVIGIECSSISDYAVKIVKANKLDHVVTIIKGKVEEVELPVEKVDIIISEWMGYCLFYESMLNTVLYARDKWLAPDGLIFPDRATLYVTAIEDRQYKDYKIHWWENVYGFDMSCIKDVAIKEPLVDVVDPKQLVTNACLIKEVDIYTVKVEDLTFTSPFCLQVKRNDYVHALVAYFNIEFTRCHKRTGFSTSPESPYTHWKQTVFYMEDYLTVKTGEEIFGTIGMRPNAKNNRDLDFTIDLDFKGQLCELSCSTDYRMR

On to `COc1ccccc1C(=O)Nc1cc2c(cc1N1CCCC1)n(C)c(=O)n2C`, for which the dTm in [1] and in experiment [2] was 2 K in each case.

Regarding `CN1CCN(c2ccc(-c3cccc(CN4CCOCC4)c3)cc2NC(=O)c2c[nH]c(=O)cc2C(F)(F)F)CC1`, the % activity remaining in experiment [3], in experiment [4], in experiment [5], in experiment [6], in [7] and in [8] was more than 90% throughout. For the same compound, the % activity remaining in experiment [9], in [10], in experiment [11], in experiment [12], in [13] and in [14] was more than 90% in each case. For the same compound, the % activity remaining in experiment [15], in experiment [16], in [18], in experiment [19], in [20] and in experiment [21] was more than 90% each time. Besides, the % activity remaining was more than 80% in experiment [22], more than 90% in experiment [23], more than 90% in [24] and more than 90% in experiment [25]. In experiment [17], this compound displayed a dTm of 1.8 K.
